In patent publication US20240043448A1, “Small Molecule Inhibitors of KRAS G12C Mutant” (Merck Sharp & Dohme LLC, priority 2019, published 2024):
Where two headings read alike, the source gives them in different places.

Key:
[1] = molecular target: Biotinylated KRAS G12C protein (Homo sapiens (Human), UniProt P01116, C118S/C51S/C80L/G12C); assay: SOS-catalyzed nucleotide exchange assay (TR-FRET); format: biochemical; details: in vitro apparent potency; preincubation time of 60 minutes prior to addition of SOS
Summary of the method: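 Biotinylated KRAS G12C preloaded with Bodipy-GDP and Tb-streptavidin, then incubated with compound (10-point, 3-fold series) for 60 min at RT. Exchange started with SOS and GTP for 60 min. TR-FRET 520/495 ratio normalised to DMSO and saturating-inhibitor controls; four-parameter fit.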

phospho-ERK = assay: Cellular phospho-ERK assay; format: cell-based; details: NCI-H358 cells, 2 hour incubation, ratio of p-Erk vs total Erk, read-out: IC50 (nM) pERK (Cell)
Summary of the method: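 NCI-H358 cells seeded overnight, then exposed to compound dose-response titrations for 2 hours at 37° C. in RPMI. Lysates assayed by AlphaLISA SureFire Ultra multiplex for p-Erk and total Erk; ratio p-Erk/total Erk used as readout, IC50 from 4-parameter logistic fit.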

Chain of Biotinylated KRAS G12C protein (P01116 other isoform, or with tags, fused parts or gaps, stated change not applied): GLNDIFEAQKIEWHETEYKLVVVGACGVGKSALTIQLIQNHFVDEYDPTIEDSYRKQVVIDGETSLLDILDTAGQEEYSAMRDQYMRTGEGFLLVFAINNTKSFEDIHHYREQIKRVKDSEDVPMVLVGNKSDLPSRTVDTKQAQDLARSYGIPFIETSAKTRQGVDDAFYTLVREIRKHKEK

| SMILES | IC50 [1] | IC50 (phospho-ERK) | IC50 (phospho-ERK; Homo sapiens, NCI-H358, 2 h) |
| --- | --- | --- | --- |
| C=CC(=O)N1C[C@H](C)N(c2nc(=O)n3c4nc(c(F)cc24)-c2c(F)ccc(F)c2OC[C@H](C)Oc2ccnc(C(C)C)c2-3)C[C@H]1C [Example 94, (11S)-2-[(2S,5R)-2,5-dimethyl-4-(prop-2-enoyl)piperazin-1-yl]-14,17,20-trifluoro-11-methyl-6-(propan-2-yl)-11,12-dihydro-4H-1,18-ethenopyrido[4,3-e]pyrimido[1,6-g][1,4,7,9]benzodioxadiazacyclododecin-4-one] | 3.4 nM | 42 nM |  |
| C=CC(=O)N1C[C@H](C)N(c2nc(=O)n3c4nc(c(F)cc24)-c2c(F)cccc2OCCCCc2ccnc(C(C)C)c2-3)C[C@H]1C [Example 8, 2-[(2S,5R)-2,5-dimethyl-4-(prop-2-enoyl)piperazin-1-yl]-18,21-difluoro-6-(propan-2-yl)-10,11,12,13-tetrahydro-4H-1,19-ethenopyrido[4,3-f]-pyrimido[1,6-h][1,8,10]ben-zoxadiazacyclotridecin-4-one] | 3.5 nM |  | 2.2 nM |
| C=CC(=O)N1C[C@H](C)N(c2nc(=O)n3c4nc(c(F)cc24)-c2c(F)cccc2OCCCc2ccnc(C(C)C)c2-3)C[C@H]1C [Example 75, 2-[(2S,5R)-2,5-dimethyl-4-(prop-2-enoyl)piperazin-1-yl]-17,20-difluoro-6-(propan-2-yl)-11,12-dihydro-4H,10H-1,18-ethenopyrido[4,3-e]pyrimido[1,6-g][1,7,9]benzoxadiazacyclododecin-4-one] | 1.7 nM |  | 8.8 nM |
| C=CC(=O)N1C[C@H](C)N(c2nc(=O)n3c4nc(c(F)cc24)-c2cc(F)c(F)cc2OCCOc2ccnc(C(C)C)c2-3)C[C@H]1C [Example 84, 2-[(2S,5R)-2,5-dimethyl-4-(prop-2-enoyl)piperazin-1-yl]-15,16,20-trifluoro-6-(propan-2-yl)-11,12-dihydro-4H-1,18-(ethanediylidene)pyrido[4,3-e]pyrimido[1,6-g][1,4,7,9]benzodioxadiazacyclododecin-4-one] | 38 nM |  | 119 nM |
| C=CC(=O)N1CCN(c2nc(=O)n3c4nc(c(F)cc24)-c2c(F)cccc2OCCCc2ccnc(C(C)C)c2-3)C(C)(C)C1 [Example 102, 2-[2,2-dimethyl-4-(prop-2-enoyl)piperazin-1-yl]-17,20-difluoro-6-(propan-2-yl)-11,12-dihydro-4H,10H-1,18-ethenopyrido[4,3-e]pyrimido[1,6-g][1,7,9] benzoxadiazacyclododecin-4-one] | 35 nM |  | 149 nM |
| C=CC(=O)N1CCN(c2nc(=O)n3c4nc(c(F)cc24)-c2c(F)cccc2OCCCc2ccnc(C(C)C)c2-3)[C@@H](C)C1 (single isomer, unassigned) [Example 10a] | 4.3 nM | 6.7 nM |  |
| C=CC(=O)N1C[C@H](C)N(c2nc(=O)n3c4nc(c(F)cc24)-c2c(ccc(F)c2F)OCCC(C)c2ccnc(C(C)C)c2-3)C[C@H]1C (single isomer, unassigned) [Example 91] | 113 nM |  | 410 nM |
| C=CC(=O)N1CCN(c2nc(=O)n3c4nc(c(F)cc24)-c2c(F)cccc2OCCOc2ccnc(C(C)C)c2-3)[C@@H](C)C1 (single isomer, unassigned) [Example 12a] | 3.9 nM |  | 6.9 nM |
| C=CC(=O)N1C[C@H](C)N(c2nc(=O)n3c4nc(c(F)cc24)-c2c(F)cccc2OCCc2ccnc(C(C)C)c2-3)C[C@H]1C [Example 96, 2-[(2S,5R)-2,5-dimethyl-4-(prop-2-enoyl)piperazin-1-yl]-16,19-difluoro-6-(propan-2-yl)-10,11-dihydro-4H-1,17-ethenopyrido[4,3-d]pyrimido[1,6-f][1,6,8]benzoxadiazacycloundecin-4-one] | 3.8 nM |  | 32 nM |
| C=CC(=O)N1CC(C)N(c2nc(=O)n3c4nc(c(C)cc24)-c2c(F)ccc(F)c2OCCOc2ccnc(C(C)C)c2-3)CC1C [Example 110, 2-[(2S,5R)-2,5-dimethyl-4-(prop-2-enoyl)piperazin-1-yl]-14,17-difluoro-20-methyl-6-(propan-2-yl)-11,12-dihydro-4H-1,18-ethenopyrido[4,3-e]pyrimido[1,6-g][1,4,7,9]benzodioxadiazacyclododecin-4-one] | 4.5 nM | 23 nM |  |
| C=CC(=O)N1CCN(c2nc(=O)n3c4nc(c(F)cc24)-c2c(F)cccc2OCCCOc2ccnc(C(C)C)c2-3)[C@@H](C)C1 [Example 1a, 18,21-difluoro-2-[(2S)-2-methyl-4-(prop-2-enoyl)piperazin-1-yl]-6-(propan-2-yl)-12,13-dihydro-4H,11H-1,19-ethenopyrido[4,3-f]pyrimido[1,6-h][1,5,8,10]benzodioxadiazacyclotridecin-4-one] | 11 nM | 21 nM |  |
| C=CC(=O)N1CCN(c2nc(=O)n3c4nc(c(F)cc24)-c2c(F)cccc2OCCCCc2cnc(C(C)C)c-3c2)[C@@H](C)C1 (single isomer, unassigned) [Example 16a] | 9.8 nM | 79 nM |  |
| C=CC(=O)N1CC(C)N(c2nc(=O)n3c4nc(c(F)cc24)-c2c(F)ccc(F)c2OCC(F)(F)CCc2ccnc(C(C)C)c2-3)CC1C [Example 55, (5aRa,18aRa)-2-[(2S,5R)-2,5-dimethyl-4-(prop-2-enoyl)piperazin-1-yl]-12,12,15,18,21-pentafluoro-6-(propan-2-yl)-10,11,12,13-tetrahydro-4H-1,19-(ethanediylidene)pyrido[4,3-f]pyrimido[1,6-h][1,8,10] benzoxadiazacyclotri-decin-4-one] | 2.7 nM |  | 29 nM |
| C=CC(=O)N1CC(C)N(c2nc(=O)n3c4nc(c(F)cc24)-c2c(F)cccc2COCCc2ccnc(C(C)C)c2-3)CC1C [Example 115, 2-[(2S,5R)-2,5-dimethyl-4-(prop-2-enoyl)piperazin-1-yl]-17,20-difluoro-6-(propan-2-yl)-10,11-dihydro-1,18-ethenopyrido[3,4-e]pyrimido[6,1-c][9,2,4]benzoxadiazacyclododecin-4(13H)-one] | 237 nM | 1020 nM |  |
| C=CC(=O)N1C[C@H](C)N(c2nc(=O)n3c4nc(c(F)cc24)-c2c(F)cccc2OCC2(CCc4ccnc(C(C)C)c4-3)CC2)C[C@H]1C [Example 60, 2′-[(2S,5R)-2,5-dimethyl-4-(prop-2-enoyl)piperazin-1-yl]-18′,21′-difluoro-6′-(propan-2-yl)-10′,11′-dihydro-4′H,13′H-spiro[cyclopropane-1,12′-[14]oxa[3,5,7,20]tetraaza[1,19] (ethanediylidene)pyrido[4,3-f]pyrimido[1,6-h][1,8,10]benzoxadiazacyclotri-decin]-4′-one] | 1.5 nM |  | 17 nM |
| C=CC(=O)N1C[C@H](C)N(c2nc(=O)n3c4nc(c(F)cc24)-c2c(F)ccc(F)c2OCC2(CCc4ccnc(C(C)C)c4-3)CC2)C[C@H]1C [Example 61, 2′-[(2S,5R)-2,5-dimethyl-4-(prop-2-enoyl)piperazin-1-yl]-15′,18′,21′-trifluoro-6′-(propan-2-yl)-10′,11′-dihydro-4′H,13′H-spiro[cyclopropane-1,12′-[14]oxa [3,5,7,20]tetraaza[1,19] (ethanediylidene)pyrido[4,3-f]pyrimido[1,6-h][1,8,10]benzoxadiazacyclotri-decin]-4′-one] | 2.3 nM |  | 43 nM |
| C=CC(=O)N1CC(C)N(c2nc(=O)n3c4nc(c(F)cc24)-c2c(F)cc(F)cc2OCC(F)(F)CCc2ccnc(C(C)C)c2-3)CC1C [Example 56, (5aRa,18aRa)-2-[(2S,5R)-2,5-dimethyl-4-(prop-2-enoyl)piperazin-1-yl]-12,12,16,18,21-pentafluoro-6-(propan-2-yl)-10,11,12,13-tetrahydro-4H-1,19-(ethanediylidene)pyrido[4,3-f]pyrimido[1,6-h][1,8,10] benzoxadiazacyclotri-decin-4-one] | 1.1 nM |  | 8 nM |
| C=CC(=O)N1C[C@H](C)N(c2nc(=O)n3c4nc(c(F)cc24)-c2c(F)cccc2OCCCCc2cnc(C(C)C)c-3c2C)C[C@H]1C [Example 88, 2-[(2S,5R)-2,5-dimethyl-4-(prop-2-enoyl)piperazin-1-yl]-19,22-difluoro-24-methyl-7-(propan-2-yl)-11,12,13,14-tetrahydro-4H-1,20-etheno-6,10-(metheno)pyrimido[1,6-k][1,8,11,13]benzoxatriazacyclohexadecin-4-one] | 1.1 nM | 96 nM |  |
